PMC3111206, “Phase I study of PD 0332991, a cyclin-dependent kinase inhibitor, administered in 3-week cycles (Schedule 2/1)” (British Journal of Cancer, 2011)
“Also recorded” adds a separate entry of the source.

Key:
Rb-negative cell lines = test system: Rb-negative cell lines; design: method as in Fry et al, 2004; details: ref Fry et al, 2004, cited from earlier work
[1] = test system: absolute neutrophil count (ANC); assay: Pharmacodynamic Emax modelling of change in ANC vs individual AUC; format: in vivo; details: Homo sapiens, cycle 1, vs individual AUC, 30 patients, s.e. 11.2, 12.6% CV, read-out: Emax for ANC (change from baseline)
Method: (§1) To document the course of changes in absolute neutrophil count (ANC) and platelets over time during the first two cycles of treatment, an exploratory analysis of data available from the weekly safety laboratory tests was carried out. Possible relationships between PD 0332991 exposure and changes in (i) ANC and (ii) platelets were assessed further by fitting a simple model (without baseline) to determine the maximum […] (Emax).

Rb-negative tumours = test system: Rb-negative tumours; design: method as in Fry et al, 2004; details: in vivo; ref Fry et al, 2004; cited from earlier work
[2] = Safety assessment: adverse events and haematological toxicity graded by NCI CTCAE v3.0; format: in vivo, human; details: for Treatment-related Alopecia, All grades / Treatment-related Alopecia, Grade 3 / Treatment-related Anorexia, All grades / Treatment-related Anorexia, Grade 3 / Treatment-related Chills, All grades / Treatment-related Chills, Grade 3 / Treatment-related Constipation, All grades / Treatment-related Constipation, Grade 3 / Treatment-related Cough, All grades / Treatment-related Cough, Grade 3 / Treatment-related Diarrhoea, All grades / Treatment-related Diarrhoea, Grade 3 / Treatment-related Dyspnea, All grades / Treatment-related Dyspnea, Grade 3 / Treatment-related Epistaxis, All grades / Treatment-related Epistaxis, Grade 3 / Treatment-related Fatigue, All grades / Treatment-related Fatigue, Grade 3 / Treatment-related Flatulence, All grades / Treatment-related Flatulence, Grade 3 / Treatment-related Mucosal inflammation, All grades / Treatment-related Mucosal inflammation, Grade 3 / Treatment-related Muscular weakness, All grades / Treatment-related Muscular weakness, Grade 3 / Treatment-related Nausea, All grades / Treatment-related Nausea, Grade 3 / Treatment-related Peripheral oedema, All grades / Treatment-related Peripheral oedema, Grade 3 / Treatment-related Pyrexia, All grades / Treatment-related Pyrexia, Grade 3 / Treatment-related Rash, All grades / Treatment-related Rash, Grade 3 / Treatment-related Vomiting, All grades / Treatment-related Vomiting, Grade 3: all cohorts combined (N=33)
Method: (§2) Safety was assessed at baseline, at regular intervals throughout the study, and within 1 week following treatment discontinuation by recording AEs, haematological and biochemical parameters, and physical status (including ECOG performance status). Adverse event severity was graded using the National Cancer Institute Common Terminology Criteria for Adverse Events, version 3.0 ([Trotti et al, 2003]). Triplicate electrocardiograms (ECGs) ∼2 min apart were taken at baseline, 3 h post-dose on days 1, 8 and 15 of cycle 1, and on day 15 of subsequent cycles for up to six cycles.

[3] = QTc interval from triplicate electrocardiograms; format: in vivo, human; details: Fridericia's correction
Method: as §2

platelets = assay: Pharmacodynamic Emax modelling of change in platelets vs individual AUC; format: in vivo; details: Homo sapiens, Platelet; cycle 1, vs individual AUC, 30 patients; s.e. 16.9; 18.3% CV; read-out: Emax for platelets (change from baseline)
Method: as §1

[4] = 200 mg QD, cycle 1, 20 patients
[5] = maximum toxicity grade, worsened vs baseline, all cohorts and all cycles (N=33)

CC(=O)c1c(C)c2cnc(Nc3ccc(N4CCNCC4)cn3)nc2n(C2CCCC2)c1=O [PD 0332991]
Activity against Rb-negative cell lines (Rb-negative cell lines; in vitro): no activity | Anti-proliferative effect in vitro (Rb-negative cell lines; leading to cell-cycle arrest at G1): potent anti-proliferative effect | Emax [1]: 88.6% | Activity against Rb-negative tumours (Rb-negative tumours): without activity | Neutropenia, NCICTCAE Grade 0 [2, 4]: 11 n | Neutropenia, NCICTCAE Grade 1 [2, 4]: 0 n | Neutropenia, NCICTCAE Grade 2 [2, 4]: 3 n | Neutropenia, NCICTCAE Grade 3 [2, 4]: 6 n | Neutropenia, NCICTCAE Grade 4 [2, 4]: 0 n | Patients with treatment interrupted following treatment-related AEs ([2]; 200 mg QD, during cycle 1): eight | Neutropenia, NCICTCAE Grade 0 ([2]; 225 mg QD, cycle 1, 6 patients): 3 n | Neutropenia, NCICTCAE Grade 1 ([2]; 225 mg QD, cycle 1, 6 patients): 0 n | Neutropenia, NCICTCAE Grade 2 ([2]; 225 mg QD, cycle 1, 6 patients): 0 n | Neutropenia, NCICTCAE Grade 3 ([2]; 225 mg QD, cycle 1, 6 patients): 2 n | Neutropenia, NCICTCAE Grade 4 ([2]; 225 mg QD, cycle 1, 6 patients): 1 n | Treatment-related Alopecia, All grades ([2]; After cycle 1): 2 (6) n (%) | Treatment-related Alopecia, Grade 3 ([2]; After cycle 1): 0 n (%) | Treatment-related Anorexia, All grades ([2]; After cycle 1): 3 (9) n (%) | Treatment-related Anorexia, Grade 3 ([2]; After cycle 1): 0 n (%) | Treatment-related Chills, All grades ([2]; After cycle 1): 2 (6) n (%) | Treatment-related Chills, Grade 3 ([2]; After cycle 1): 0 n (%) | Treatment-related Constipation, All grades ([2]; After cycle 1): 3 (9) n (%) | Treatment-related Constipation, Grade 3 ([2]; After cycle 1): 0 n (%) | Treatment-related Cough, All grades ([2]; After cycle 1): 2 (6) n (%) | Treatment-related Cough, Grade 3 ([2]; After cycle 1): 0 n (%) | Treatment-related Diarrhoea, All grades ([2]; After cycle 1): 10 (30) n (%) | Treatment-related Diarrhoea, Grade 3 ([2]; After cycle 1): 0 n (%) | Treatment-related Dyspnea, All grades ([2]; After cycle 1): 1 (3) n (%) | Treatment-related Dyspnea, Grade 3 ([2]; After cycle 1): 0 n (%) | Treatment-related Epistaxis, All grades ([2]; After cycle 1): 4 (12) n (%) | Treatment-related Epistaxis, Grade 3 ([2]; After cycle 1): 0 n (%) | Treatment-related Fatigue, All grades ([2]; After cycle 1): 10 (30) n (%) | Treatment-related Fatigue, Grade 3 ([2]; After cycle 1): 1 (3) n (%) | Treatment-related Flatulence, All grades ([2]; After cycle 1): 3 (9) n (%) | Treatment-related Flatulence, Grade 3 ([2]; After cycle 1): 0 n (%) | Treatment-related Mucosal inflammation, All grades ([2]; After cycle 1): 3 (9) n (%) | Treatment-related Mucosal inflammation, Grade 3 ([2]; After cycle 1): 0 n (%) | Treatment-related Muscular weakness, All grades ([2]; After cycle 1): 2 (6) n (%) | Treatment-related Muscular weakness, Grade 3 ([2]; After cycle 1): 0 n (%) | Treatment-related Nausea, All grades ([2]; After cycle 1): 5 (15) n (%) | Treatment-related Nausea, Grade 3 ([2]; After cycle 1): 1 (3) n (%) | Treatment-related Peripheral oedema, All grades ([2]; After cycle 1): 2 (6) n (%) | Treatment-related Peripheral oedema, Grade 3 ([2]; After cycle 1): 0 n (%) | Treatment-related Pyrexia, All grades ([2]; After cycle 1): 2 (6) n (%) | Treatment-related Pyrexia, Grade 3 ([2]; After cycle 1): 0 n (%) | Treatment-related Rash, All grades ([2]; After cycle 1): 2 (6) n (%) | Treatment-related Rash, Grade 3 ([2]; After cycle 1): 0 n (%) | Treatment-related Vomiting, All grades ([2]; After cycle 1): 2 (6) n (%) | Treatment-related Vomiting, Grade 3 ([2]; After cycle 1): 1 (3) n (%) | Treatment-related Alopecia, All grades ([2]; Cycle 1): 0 n (%) | Treatment-related Alopecia, Grade 3 ([2]; Cycle 1): 0 n (%) | Treatment-related Anorexia, All grades ([2]; Cycle 1): 1 (3) n (%) | Treatment-related Anorexia, Grade 3 ([2]; Cycle 1): 0 n (%) | Treatment-related Chills, All grades ([2]; Cycle 1): 0 n (%) | Treatment-related Chills, Grade 3 ([2]; Cycle 1): 0 n (%) | Treatment-related Constipation, All grades ([2]; Cycle 1): 4 (12) n (%) | Treatment-related Constipation, Grade 3 ([2]; Cycle 1): 0 n (%) | Treatment-related Cough, All grades ([2]; Cycle 1): 0 n (%) | Treatment-related Cough, Grade 3 ([2]; Cycle 1): 0 n (%) | Treatment-related Diarrhoea, All grades ([2]; Cycle 1): 6 (18) n (%) | Treatment-related Diarrhoea, Grade 3 ([2]; Cycle 1): 0 n (%) | Treatment-related Dyspnea, All grades ([2]; Cycle 1): 3 (9) n (%) | Treatment-related Dyspnea, Grade 3 ([2]; Cycle 1): 0 n (%) | Treatment-related Epistaxis, All grades ([2]; Cycle 1): 0 n (%) | Treatment-related Epistaxis, Grade 3 ([2]; Cycle 1): 0 n (%) | Treatment-related Fatigue, All grades ([2]; Cycle 1): 11 (33) n (%) | Treatment-related Fatigue, Grade 3 ([2]; Cycle 1): 0 n (%) | Treatment-related Flatulence, All grades ([2]; Cycle 1): 0 n (%) | Treatment-related Flatulence, Grade 3 ([2]; Cycle 1): 0 n (%) | Treatment-related Mucosal inflammation, All grades ([2]; Cycle 1): 0 n (%) | Treatment-related Mucosal inflammation, Grade 3 ([2]; Cycle 1): 0 n (%) | Treatment-related Muscular weakness, All grades ([2]; Cycle 1): 0 n (%) | Treatment-related Muscular weakness, Grade 3 ([2]; Cycle 1): 0 n (%) | Treatment-related Nausea, All grades ([2]; Cycle 1): 10 (30) n (%) | Treatment-related Nausea, Grade 3 ([2]; Cycle 1): 0 n (%) | Treatment-related Peripheral oedema, All grades ([2]; Cycle 1): 3 (9) n (%) | Treatment-related Peripheral oedema, Grade 3 ([2]; Cycle 1): 0 n (%) | Treatment-related Pyrexia, All grades ([2]; Cycle 1): 1 (3) n (%) | Treatment-related Pyrexia, Grade 3 ([2]; Cycle 1): 0 n (%) | Treatment-related Rash, All grades ([2]; Cycle 1): 4 (12) n (%) | Treatment-related Rash, Grade 3 ([2]; Cycle 1): 0 n (%) | Treatment-related Vomiting, All grades ([2]; Cycle 1): 2 (6) n (%) | Treatment-related Vomiting, Grade 3 ([2]; Cycle 1): 0 n (%) | Patients with treatment interrupted following treatment-related AEs ([2]; after cycle 1 (two 200-mg QD, one 225-mg QD)): three | Diarrhoea incidence ([2]; after cycle 1, all cohorts): 30% | Epistaxis incidence ([2]; after cycle 1, all cohorts): 12% | Fatigue incidence ([2]; after cycle 1, all cohorts): 30% | Nausea incidence ([2]; after cycle 1, all cohorts): 15% | Grade 1/2 leukopenia and thrombocytopenia ([2]; all cohorts): 58–67 % of patients | Grade 3/4 leukopenia and neutropenia ([2]; all cohorts): 20–25 % of patients | Patients requiring dose reductions ([2]; all cohorts): Five | Patients who discontinued treatment permanently because of treatment-related AEs ([2]; all cohorts): No patient | Treatment-related grade 4 non-haematological AEs ([2]; all cohorts): no treatment-related grade 4 non-haematological AEs; also recorded: no treatment-related grade 4 toxicity | Grade 3 or 4 leukopenia ([2]; all cohorts and cycles): 21% | Grade 3 or 4 lymphopenia ([2]; all cohorts and cycles): 36% | Grade 3 or 4 neutropenia ([2]; all cohorts and cycles): 24% | Grade 3 or 4 thrombocytopenia ([2]; all cohorts and cycles): 9% | Grade 3 or 4 anaemia ([2]; all cohorts and cycles, a single patient): 3% | Number of grade 3 non-haematological AEs ([2]; all cohorts, all after the first cycle (fatigue, hyperglycaemia, hyponatremia, nausea, vomiting; n=1 each)): Five | Constipation incidence ([2]; during cycle 1, all cohorts): 12% | Diarrhoea incidence ([2]; during cycle 1, all cohorts): 18% | Fatigue incidence ([2]; during cycle 1, all cohorts): 33% | Nausea incidence ([2]; during cycle 1, all cohorts): 30% | Rash incidence ([2]; during cycle 1, all cohorts): 12% | Anaemia, Grade 1/2 [2, 5]: 21 (64) n (%) | Anaemia, Grade 3/4 [2, 5]: 1 (3) n (%) | Leukopenia, Grade 1/2 [2, 5]: 22 (67) n (%) | Leukopenia, Grade 3/4 [2, 5]: 7 (21) n (%) | Lymphopenia, Grade 1/2 [2, 5]: 8 (24) n (%) | Lymphopenia, Grade 3/4 [2, 5]: 12 (36) n (%) | Neutropenia, Grade 1/2 [2, 5]: 14 (42) n (%) | Neutropenia, Grade 3/4 [2, 5]: 8 (24) n (%) | Thrombocytopenia, Grade 1/2 [2, 5]: 19 (58) n (%) | Thrombocytopenia, Grade 3/4 [2, 5]: 3 (9) n (%) | Patients with maximum on-treatment QTc ⩾500-msec or >30-msec increase from baseline [3]: no patients | Emax (platelets): 92.2%
